From ChEMBL document CHEMBL2073900, “Cellular uptake and efflux of the tea flavonoid (-)epicatechin-3-gallate in the human intestinal cell line Caco-2” (J Pharmacol Exp Ther, 2003) come the findings set out here.

This data set deals with ATP-binding cassette sub-family C member 2 (Homo sapiens, UniProt Q92887). The experiment in a line: TP_TRANSPORTER: uptake in membrane vesicle from MRP2-expressing MDCKII cells. Type of data set: functional, cell membranes. The settings on record: dog, mdck-ii.
Chain of ATP-binding cassette sub-family C member 2 (Q92887 whole entry): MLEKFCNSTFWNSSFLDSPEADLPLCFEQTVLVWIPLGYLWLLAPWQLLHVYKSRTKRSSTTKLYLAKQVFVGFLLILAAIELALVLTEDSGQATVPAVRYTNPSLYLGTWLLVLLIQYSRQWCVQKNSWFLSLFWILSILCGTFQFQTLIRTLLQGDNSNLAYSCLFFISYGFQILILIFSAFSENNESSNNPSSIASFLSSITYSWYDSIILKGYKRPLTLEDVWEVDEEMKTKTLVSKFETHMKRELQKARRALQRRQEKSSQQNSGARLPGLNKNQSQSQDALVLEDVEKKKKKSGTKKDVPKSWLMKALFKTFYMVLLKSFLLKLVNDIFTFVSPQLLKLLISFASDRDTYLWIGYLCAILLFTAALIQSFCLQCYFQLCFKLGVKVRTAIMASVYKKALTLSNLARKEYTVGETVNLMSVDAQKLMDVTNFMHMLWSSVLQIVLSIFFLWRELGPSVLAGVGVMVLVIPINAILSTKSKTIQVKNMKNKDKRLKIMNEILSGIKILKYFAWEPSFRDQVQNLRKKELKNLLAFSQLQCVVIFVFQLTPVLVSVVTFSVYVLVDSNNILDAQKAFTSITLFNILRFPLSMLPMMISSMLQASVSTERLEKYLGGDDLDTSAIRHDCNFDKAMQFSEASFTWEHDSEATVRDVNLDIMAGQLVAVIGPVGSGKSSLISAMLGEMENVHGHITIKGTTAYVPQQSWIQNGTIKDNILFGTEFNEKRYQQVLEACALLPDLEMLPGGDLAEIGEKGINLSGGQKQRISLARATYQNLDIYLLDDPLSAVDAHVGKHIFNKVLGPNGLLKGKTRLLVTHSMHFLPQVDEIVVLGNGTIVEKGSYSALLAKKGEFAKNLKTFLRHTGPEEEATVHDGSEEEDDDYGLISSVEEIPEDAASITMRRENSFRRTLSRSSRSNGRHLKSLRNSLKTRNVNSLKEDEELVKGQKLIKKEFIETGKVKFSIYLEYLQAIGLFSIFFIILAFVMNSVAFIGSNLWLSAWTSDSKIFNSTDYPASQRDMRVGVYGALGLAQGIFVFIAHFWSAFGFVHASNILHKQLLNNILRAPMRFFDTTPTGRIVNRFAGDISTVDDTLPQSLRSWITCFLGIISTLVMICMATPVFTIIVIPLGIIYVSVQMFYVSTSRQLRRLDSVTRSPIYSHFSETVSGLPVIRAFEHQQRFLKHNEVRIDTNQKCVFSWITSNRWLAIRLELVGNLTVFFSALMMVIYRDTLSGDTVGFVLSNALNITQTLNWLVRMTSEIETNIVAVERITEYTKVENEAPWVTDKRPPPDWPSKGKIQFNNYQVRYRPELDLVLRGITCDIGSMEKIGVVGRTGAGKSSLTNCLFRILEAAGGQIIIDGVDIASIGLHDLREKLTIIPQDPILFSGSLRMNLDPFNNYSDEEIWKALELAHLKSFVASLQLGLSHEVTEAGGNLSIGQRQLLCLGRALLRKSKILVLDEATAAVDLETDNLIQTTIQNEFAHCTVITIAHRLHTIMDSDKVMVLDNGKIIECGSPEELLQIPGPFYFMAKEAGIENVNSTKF

`O=C(O[C@@H]1Cc2c(O)cc(O)cc2O[C@@H]1c1ccc(O)c(O)c1)c1cc(O)c(O)c(O)c1` [EPICATECHIN GALLATE]: the Activity entry is “substrate []”.
